System: Human primary T cells
Test: IL-2 ELISA, Human Primary T Cell, Anti-CD3+CD28+ (Example 3)
Assay type: cell-based
Conditions: anti-CD3+CD28 stimulation
Outline: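 IL-2 was read by ELISA after stimulation on wells pre-coated with 1 ug/ml αCD3 and 5 μg/ml αCD28. Before this, 100,000 human primary T cells per well spent 1 h at 37 °C with test compound in Yssel's medium. The counter-screen replaced antibody stimulation with PMA (0.5 ng/ml final) and ionomycin (0.1 uM final).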

Row | Compound | IC50 (24 hours) | IC50 (Homo sapiens, T-cell, 24 h) | also measured
1 | CN1CCN(c2ncc(Nc3ncc(F)c(NC4CC(C)(C)N(C)C(C)(C)C4)n3)cc2Cl)CC1 [Compound I-288] | 374 nM | – | –
2 | CN1C(C)(C)CC(Nc2nc(Nc3cnc(N4CCOCC4)c(Cl)c3)ncc2F)CC1(C)C [Compound I-290] | 596 nM | – | –
3 | COC(=O)CCN1C(C)(C)CC(Nc2nc(Nc3ccc(OC)c(OC)c3)ncc2F)CC1(C)C [Compound I-291] | – | 22300 nM | –
4 | COC(=O)CCN1C(C)(C)CC(Nc2nc(Nc3cc(OC)cc(OC)c3)ncc2F)CC1(C)C [Compound I-292] | – | 2480 nM | –
5 | COC(=O)CCN1C(C)(C)CC(Nc2nc(Nc3ccc(OC)c(Cl)c3)ncc2F)CC1(C)C [Compound I-293] | – | 2190 nM | –
6 | COC(=O)CCN1C(C)(C)CC(Nc2nc(Nc3cc(Cl)cc(Cl)c3)ncc2F)CC1(C)C [Compound I-294] | – | 4550 nM | –
7 | COC(=O)C(C)N1C(C)(C)CC(Nc2nc(Nc3ccc(C)c(C#N)c3)ncc2F)CC1(C)C (stereo not drawn) [Compound I-296] | – | 1040 nM | –
8 | COC(=O)/C=C/N1C(C)(C)CC(Nc2nc(Nc3ccc(OC)c(OC)c3)ncc2F)CC1(C)C [Compound I-297] | 24700 nM | – | –
9 | COC(=O)C=CN1C(C)(C)CC(Nc2nc(Nc3cc(OC)cc(OC)c3)ncc2F)CC1(C)C [Compound I-298] | 1080 nM | – | –
10 | COC(=O)/C=C/N1C(C)(C)CC(Nc2nc(Nc3ccc(OC)c(C(F)(F)F)c3)ncc2F)CC1(C)C [Compound I-301] | 951 nM | – | –
11 | COc1cc(Nc2ncc(F)c(NC3CC(C)(C)N(CCC(=O)O)C(C)(C)C3)n2)cc(OC)c1 [Compound I-302] | – | 25100 nM | –
12 | COc1ccc(Nc2ncc(F)c(NC3CC(C)(C)N(CCC(=O)O)C(C)(C)C3)n2)cc1Cl [Compound I-303] | – | 17700 nM | –
13 | CC1(C)CC(Nc2nc(Nc3cc(Cl)cc(Cl)c3)ncc2F)CC(C)(C)N1CCC(=O)O [Compound I-304] | – | 9510 nM | –
14 | Cc1ccc(Nc2ncc(F)c(NC3CC(C)(C)N(CCC(=O)O)C(C)(C)C3)n2)cc1C#N [Compound I-306] | – | 10500 nM | –
15 | COc1cc(Nc2ncc(F)c(NC3CC(C)(C)N(C)C(C)(C)C3)n2)cc(OC)c1 [Compound I-307] | 327 nM | – | –
16 | COc1cc(Nc2ncc(F)c(N(Cc3ccccc3)C3CC(C)(C)N(C)C(C)(C)C3)n2)cc(OC)c1 [Compound I-308] | – | 809 nM | –
17 | COc1ccc(Nc2ncc(F)c(N(Cc3ccccc3)C3CC(C)(C)N(C)C(C)(C)C3)n2)cc1OC(F)F [Compound I-309] | – | 642 nM | –
18 | Cc1ccc(Nc2ncc(F)c(N(Cc3ccccc3)C3CC(C)(C)N(C)C(C)(C)C3)n2)cc1C#N [Compound I-313] | – | 793 nM | –

Row | Compound | IC50 (24 hours) | IC50 (Homo sapiens, T-cell, 24 h) | also measured
19 | Cc1ccc(Nc2ncc(F)c(N(Cc3ccc4ccccc4c3)C3CC(C)(C)N(C)C(C)(C)C3)n2)cc1C#N [Compound I-315] | – | 3390 nM | –
20 | Cc1ccc(Nc2ncc(F)c(N(Cc3ccc4ccccc4n3)C3CC(C)(C)N(C)C(C)(C)C3)n2)cc1C#N [Compound I-320] | – | 6140 nM | –
21 | CN1C(C)(C)CC(Nc2nc(Nc3ccc(F)c(Cl)c3)ncc2F)CC1(C)C [Compound I-333] | 586 nM | – | –
22 | CN1C(C)(C)CC(Nc2nc(Nc3ccc(Cl)c(Cl)c3)ncc2F)CC1(C)C [Compound I-336] | 2040 nM | – | –
23 | CN1C(C)(C)CC(Nc2nc(Nc3ccc(Oc4ncccn4)c(Cl)c3)ncc2F)CC1(C)C [Compound I-338] | 360 nM | – | –
24 | COc1ccc(Nc2ncc(F)c(NC3CC(C)(C)N(C)C(C)(C)C3)n2)cn1 [Compound I-345] | – | 5320 nM | –
25 | CC(C)Oc1ccc(Nc2ncc(F)c(NC3CC(C)(C)N(C)C(C)(C)C3)n2)cc1Cl [Compound I-346] | 248 nM | – | –
26 | CN1C(C)(C)CC(Nc2nc(Nc3cc(F)c(F)c(F)c3)ncc2F)CC1(C)C [Compound I-347] | 617 nM | – | –
27 | CN1C(C)(C)CC(Nc2nc(Nc3ccc(NC(=O)c4ccco4)c(Cl)c3)ncc2Cl)CC1(C)C [Compound I-351] | 198 nM | – | –
28 | COc1cc(Nc2ncc(Cl)c(NC3CC(C)(C)N(C)C(C)(C)C3)n2)ccc1NC(=O)c1ccco1 [Compound I-352] | 1070 nM | – | –
29 | CN1C(C)(C)CC(Nc2nc(Nc3cc(F)cc(F)c3)ncc2F)CC1(C)C [Compound I-354] | 595 nM | – | –
30 | COc1cc(Nc2ncc(F)c(NC3CC(C)(C)N(C)C(C)(C)C3)n2)cc(-n2nnnc2C)c1 [Compound I-358] | – | 29.5 nM | –
31 | COc1ccc(Nc2ncc(F)c(NC3CC(C)(C)N(C)C(C)(C)C3)n2)cc1OC(F)F [Compound I-359] | – | – | IC50 (24 hours, citrate salt): 118 nM
32 | COc1ccc(Nc2ncc(F)c(NC3CC(C)(C)N(C)C(C)(C)C3)n2)cc1OC(C)C [Compound I-360] | 2200 nM | – | –
33 | COc1cc(Nc2ncc(F)c(NC3CC(C)(C)N(C)C(C)(C)C3)n2)ccc1-n1nc(C)cc1C [Compound I-361] | 4660 nM | – | –
34 | CN1C(C)(C)CC(Nc2nc(Nc3ccc(C(=O)NCCc4ccccn4)c(Cl)c3)ncc2F)CC1(C)C [Compound I-362] | 667 nM | – | –
35 | CN1C(C)(C)CC(Nc2nc(Nc3ccc(C(=O)NCc4cccnc4)cc3)ncc2F)CC1(C)C [Compound I-367] | 3700 nM | – | –
36 | COc1ccc(Nc2ncc(F)c(NC3CC(C)(C)N(C)C(C)(C)C3)n2)cc1-c1cnco1 [Compound I-369] | 624 nM | – | –

Continued, in another order:

Row | IC50 (24 hours) | IC50 (Homo sapiens, T-cell, 24 h) | Compound | also measured
37 | 3040 nM | – | CN1C(C)(C)CC(Nc2nc(Nc3cccc(OC(F)(F)F)c3)ncc2F)C1(C)C (stereo not drawn) [Compound I-284, 5-Fluoro-N2-(3-trifluoromethoxy)phenyl-N4-(1,2,2,5,5-pentamethylpyrrolidin-3-yl)-2,4-pyrimidinediamine] | –
38 | 1230 nM | – | CN1CCN(c2ccc(Nc3ncc(F)c(NC4CC(C)(C)N(C)C4(C)C)n3)cc2C(F)(F)F)CC1 (stereo not drawn) [Compound I-285, 5-Fluoro-N2-[4-(4-methylpiperazin-1-yl)-3-(trifluoromethyl)]phenyl-N4-(1,2,2,5,5-pentamethylpyrrolidin-3-yl)-2,4-pyrimidinediamine] | –
39 | 2420 nM | – | CN1C(C)(C)CC(Nc2nc(Nc3ccc(N4CCN(S(C)(=O)=O)CC4)c(C(F)(F)F)c3)ncc2F)C1(C)C (stereo not drawn) [Compound I-286] | –
40 | 2190 nM | – | CN1C(C)(C)CC(Nc2nc(Nc3ccc(N4CCOCC4)c(C(F)(F)F)c3)ncc2F)C1(C)C (stereo not drawn) [Compound I-287, 5-Fluoro-N2-[4-morpholino-3-(trifluoromethyl)]phenyl-N4-(1,2,2,5,5-pentamethylpyrrolidin-3-yl)-2,4-pyrimidinediamine] | –
41 | 424 nM | – | CN1C(C)(C)CC(Nc2nc(Nc3cnc(N4CCN(S(C)(=O)=O)CC4)c(Cl)c3)ncc2F)CC1(C)C [Compound I-289] | –
42 | 5100 nM | – | COC(=O)CCN1C(C)(C)CC(Nc2nc(Nc3ccc(OC)c(C(F)(F)F)c3)ncc2F)CC1(C)C [Compound I-295] | –
43 | 17900 nM | – | COc1ccc(Nc2ncc(F)c(NC3CC(C)(C)N(CCC(=O)O)C(C)(C)C3)n2)cc1C(F)(F)F [Compound I-305] | –
44 | – | 1410 nM | CN1C(C)(C)CC(N(Cc2ccccc2)c2nc(Nc3ccc(N4CCN(S(C)(=O)=O)CC4)c(C(F)(F)F)c3)ncc2F)CC1(C)C [Compound I-310] | –
45 | – | 804 nM | CN1CCN(c2ccc(Nc3ncc(F)c(N(Cc4ccccc4)C4CC(C)(C)N(C)C(C)(C)C4)n3)cc2C(F)(F)F)CC1 [Compound I-311] | –
46 | – | 1690 nM | CN1C(C)(C)CC(N(Cc2ccccc2)c2nc(Nc3ccc(N4CCOCC4)c(C(F)(F)F)c3)ncc2F)CC1(C)C [Compound I-312] | –
47 | – | 2570 nM | COc1cc(Nc2ncc(F)c(N(Cc3ccc4ccccc4c3)C3CC(C)(C)N(C)C(C)(C)C3)n2)cc(OC)c1 [Compound I-314] | –
48 | – | 3440 nM | COc1ccc(Nc2ncc(F)c(N(Cc3ccc4ccccc4c3)C3CC(C)(C)N(C)C(C)(C)C3)n2)cc1OC(F)F [Compound I-316] | –
49 | – | 2420 nM | COc1cc(Nc2ncc(F)c(N(Cc3ccc(-c4ccccc4)cc3)C3CC(C)(C)N(C)C(C)(C)C3)n2)cc(OC)c1 [Compound I-317] | –
50 | – | 2510 nM | Cc1ccc(Nc2ncc(F)c(N(Cc3ccc(-c4ccccc4)cc3)C3CC(C)(C)N(C)C(C)(C)C3)n2)cc1C#N [Compound I-318] | –
51 | – | 2850 nM | COc1ccc(Nc2ncc(F)c(N(Cc3ccc(-c4ccccc4)cc3)C3CC(C)(C)N(C)C(C)(C)C3)n2)cc1OC(F)F [Compound I-319] | –
52 | – | 5950 nM | COc1ccc(Nc2ncc(F)c(N(Cc3ccc4ccccc4n3)C3CC(C)(C)N(C)C(C)(C)C3)n2)cc1OC(F)F [Compound I-321] | –
53 | – | 5790 nM | COc1cc(Nc2ncc(F)c(N(Cc3ccc4ccccc4n3)C3CC(C)(C)N(C)C(C)(C)C3)n2)cc(OC)c1 [Compound I-322] | –
54 | – | 4710 nM | COc1cc(Nc2ncc(F)c(N(Cc3cc4c(cc3Br)OCO4)C3CC(C)(C)N(C)C(C)(C)C3)n2)cc(OC)c1 [Compound I-323] | –
55 | – | 3460 nM | COc1cc(Nc2ncc(F)c(N(Cc3ccc(-c4ccccc4C#N)cc3)C3CC(C)(C)N(C)C(C)(C)C3)n2)cc(OC)c1 [Compound I-325] | –
56 | – | 3080 nM | Cc1ccc(Nc2ncc(F)c(N(Cc3ccc(-c4ccccc4C#N)cc3)C3CC(C)(C)N(C)C(C)(C)C3)n2)cc1C#N [Compound I-326] | –
57 | 5080 nM | – | CN1C(C)(C)CC(Nc2nc(Nc3cccc(O)c3)ncc2F)CC1(C)C [Compound I-327] | –
58 | 1120 nM | – | CN1C(C)(C)CC(Nc2nc(Nc3ccc(N4CCOCC4)c(C(F)(F)F)c3)ncc2C(F)(F)F)CC1(C)C [Compound I-330] | –
59 | 806 nM | – | CN1C(C)(C)CC(Nc2nc(Nc3ccc(N4CCSCC4)c(C(F)(F)F)c3)ncc2F)CC1(C)C [Compound I-331] | –
60 | 1010 nM | – | CN1C(C)(C)CC(Nc2nc(Nc3ccc(OC(F)(F)F)c(Cl)c3)ncc2F)CC1(C)C [Compound I-334] | –
61 | 563 nM | – | CN1C(C)(C)CC(Nc2nc(Nc3ccc(N4CCOCC4)c(Cl)c3)ncc2F)CC1(C)C [Compound I-335] | –
62 | 315 nM | – | COc1ccc(Nc2ncc(F)c(NC3CC(C)(C)N(C)C(C)(C)C3)n2)cc1OC(F)(F)F [Compound I-343] | –
63 | 1040 nM | – | COc1cc(Nc2ncc(F)c(NC3CC(C)(C)N(C)C(C)(C)C3)n2)ccc1-n1cccc1 [Compound I-349] | –
64 | 1540 nM | – | COc1cc(Nc2ncc(F)c(NC3CC(C)(C)N(C)C(C)(C)C3)n2)ccc1NC(=O)c1ccco1 [Compound I-353] | –
65 | 893 nM | – | CN1C(C)(C)CC(Nc2nc(Nc3ccc(NC(=O)c4ccco4)c(C(F)(F)F)c3)ncc2F)CC1(C)C [Compound I-355] | –
66 | 297 nM | – | CN1C(C)(C)CC(Nc2nc(Nc3ccc(OCCN4CCOCC4)c(Cl)c3)ncc2F)CC1(C)C [Compound I-368] | –
